Experimental data as given in patent US20250170266A1 (ZYMEWORKS BC INC., priority 2022, published 2025).
Read-outs that look alike come from different tables or passages of the source.

What was measured:
Assay type in all cases: cell-based
[1] = system: Human peripheral blood mononuclear cells (PBMCs); experiment: Human PBMC Assay, cytokine release (HTRF); conditions: 24 hours; for EC50: PBMC
Description: Human peripheral blood mononuclear cells (PBMCs) were isolated from fresh Leukopak using magnetic separation. Briefly, erythrocytes and granulocytes were magnetically labeled with Erythrocyte Depletion MicroBeads (Miltenyi Biotec) and Granulocyte Depletion MicroBeads (Miltenyi Biotec), respectively. The cell suspension was loaded onto a Multi-24 Column Block (Miltenyi Biotec) and placed in the magnetic field of a MultiMACS Cell24 Separator Plus (Miltenyi Biotec). The unlabelled PBMCs were collected in the run through. PBMCs were resuspended in CryoStor® CS10 ([…]) and frozen. On the day before the assay, PBMCs were thawed in warm assay buffer (RPMI+10% FBS) and resuspended in assay buffer+10 ng/ml hIL3 (R&D Systems). Cells were rested at 37° C.+5% CO2 overnight. The following day, cells were spun down and resuspended in fresh assay buffer. 300,000 cells were added to each well of plates containing test compound. For test compound preparation, each compound was initially diluted to 1 mM in DMSO and further diluted in assay buffer. A 4-fold 11-point titration starting from 15 μM was performed. Cells were incubated with test compound at 37° C.+5% CO2 for 24 hours before supernatant was harvested. Human interleukin 6 (hIL6), human tumor necrosis factor alpha (hTNFα), and human interferon alpha (hIFNα) were quantified in the supernatant using homogeneous time resolved fluorescence (Cisbio).
(§1) Each assay included a positive control compound (referred to herein as “benchmark,” see, e.g., TABLE 3 below, and taken from International Patent Publication No. WO2017/072662, structure shown below) and a negative control (growth medium). […] The structure of the benchmark compound from International Patent Publication No. WO 2017/072662 is as follows: […]

[2] = molecular target: T1, hTLR7 (Homo sapiens, UniProt Q9NYK1); experiment: Reporter Gene Assay (RGA), HEK-Blue hTLR7 reporter cells, SEAP readout; conditions: overnight incubation, SEAP absorbance 620 nm
T1 construct: host or cells: HEK-Blue hTLR7 reporter cells (HEK293-derived, own knowledge)
T1 sequence (Q9NYK1 27-1049): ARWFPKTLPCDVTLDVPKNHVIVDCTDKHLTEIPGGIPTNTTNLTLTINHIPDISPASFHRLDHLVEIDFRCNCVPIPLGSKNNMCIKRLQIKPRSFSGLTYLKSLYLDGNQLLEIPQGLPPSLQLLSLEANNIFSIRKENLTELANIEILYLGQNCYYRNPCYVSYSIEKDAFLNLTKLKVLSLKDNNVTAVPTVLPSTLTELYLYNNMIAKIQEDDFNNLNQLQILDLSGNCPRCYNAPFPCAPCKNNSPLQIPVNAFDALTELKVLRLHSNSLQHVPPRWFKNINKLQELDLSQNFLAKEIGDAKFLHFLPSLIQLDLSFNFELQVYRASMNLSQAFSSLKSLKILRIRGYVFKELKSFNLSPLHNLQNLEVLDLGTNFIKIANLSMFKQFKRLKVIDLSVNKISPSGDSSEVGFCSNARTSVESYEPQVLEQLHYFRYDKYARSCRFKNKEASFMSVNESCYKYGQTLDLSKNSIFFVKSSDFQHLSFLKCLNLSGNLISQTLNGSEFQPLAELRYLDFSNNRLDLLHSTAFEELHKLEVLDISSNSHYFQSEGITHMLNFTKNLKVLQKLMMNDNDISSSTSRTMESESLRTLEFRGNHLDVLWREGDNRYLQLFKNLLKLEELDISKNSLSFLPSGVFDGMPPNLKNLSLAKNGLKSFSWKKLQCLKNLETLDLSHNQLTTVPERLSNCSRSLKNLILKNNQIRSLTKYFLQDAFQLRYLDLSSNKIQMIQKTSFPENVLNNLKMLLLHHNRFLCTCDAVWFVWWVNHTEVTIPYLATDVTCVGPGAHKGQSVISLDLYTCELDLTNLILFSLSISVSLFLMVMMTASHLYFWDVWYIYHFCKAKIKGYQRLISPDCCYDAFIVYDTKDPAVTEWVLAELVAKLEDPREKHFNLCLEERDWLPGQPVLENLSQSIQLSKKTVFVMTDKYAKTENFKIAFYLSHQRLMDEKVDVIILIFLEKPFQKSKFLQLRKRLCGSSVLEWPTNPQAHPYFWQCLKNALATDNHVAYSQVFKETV
Experimental: (§2) 1.5×10^4 HEK-Blue™ hTLR7 (Invivogen, San Diego, CA) or HEK-Blue™ mTLR7 (Invivogen, San Diego, CA) reporter cells were treated with a titration series of test compound (4-fold titration from […], 11 points). Compounds were initially diluted to 1 mM in DMSO and subsequently serial-diluted in assay media (HEK-Blue™ Detection; Invivogen, San Diego, CA). Cells with test compound were incubated overnight at 37° C.+5% CO2, and the amount of secreted embryonic alkaline phosphatase (SEAP) was determined by measuring absorbance (620 nm) using a Synergy™ H1 microplate reader.
as §1

[3] = system: Mouse splenocytes; experiment: Mouse Splenocyte Assay, cytokine release (HTRF); conditions: 24 hours, mIL6 in supernatant; for EC50: Splenocyte, read-out: Splenocyte IL6 EC50
Experimental: Mouse splenocytes were isolated from fresh mouse spleens. Briefly, spleens were harvested from female balb/c nude mice and transferred to a 70 μm cell strainer. The cell strainer was subsequently placed in a 6-well suspension culture plate containing 5 mL media (RPMI+10% FBS). The spleens were crushed against the cell strainer using the flat end of a 10 mL syringe plunger and the cell strainer was washed with 5 mL media. The cell strainer was discarded, and the cell suspension was washed in PBS. Red blood cells were removed using PharmaLyse (BD). The cell suspension was washed in media, resuspended in CryoStor® CS10 ([…]) and frozen. On assay day, mouse splenocytes were thawed in warm assay buffer (RPMI+10% FBS). Cells were spun down and resuspended in fresh assay buffer. 100,000 cells were added to each well of plates containing test compound. For test compound preparation, each compound was initially diluted to 1 mM in DMSO and further diluted in assay buffer. A 4-fold 11-point titration starting from 15 μM was performed. Cells were incubated with test compound at 37° C.+5% CO2 for 24 hours before supernatant was harvested. Murine IL6 (mIL6) and murine TNFα (mTNFα) were quantified in the supernatant using homogeneous time resolved fluorescence (Cisbio).
as §1

[4] = molecular target: T2, mTLR7 (Mus musculus, UniProt P58681); experiment: Reporter Gene Assay (RGA), HEK-Blue mTLR7 reporter cells, SEAP readout; conditions: overnight incubation, SEAP absorbance 620 nm
T2 construct: host or cells: HEK-Blue mTLR7 reporter cells (HEK293-derived, own knowledge)
T2 sequence (P58681 27-1050): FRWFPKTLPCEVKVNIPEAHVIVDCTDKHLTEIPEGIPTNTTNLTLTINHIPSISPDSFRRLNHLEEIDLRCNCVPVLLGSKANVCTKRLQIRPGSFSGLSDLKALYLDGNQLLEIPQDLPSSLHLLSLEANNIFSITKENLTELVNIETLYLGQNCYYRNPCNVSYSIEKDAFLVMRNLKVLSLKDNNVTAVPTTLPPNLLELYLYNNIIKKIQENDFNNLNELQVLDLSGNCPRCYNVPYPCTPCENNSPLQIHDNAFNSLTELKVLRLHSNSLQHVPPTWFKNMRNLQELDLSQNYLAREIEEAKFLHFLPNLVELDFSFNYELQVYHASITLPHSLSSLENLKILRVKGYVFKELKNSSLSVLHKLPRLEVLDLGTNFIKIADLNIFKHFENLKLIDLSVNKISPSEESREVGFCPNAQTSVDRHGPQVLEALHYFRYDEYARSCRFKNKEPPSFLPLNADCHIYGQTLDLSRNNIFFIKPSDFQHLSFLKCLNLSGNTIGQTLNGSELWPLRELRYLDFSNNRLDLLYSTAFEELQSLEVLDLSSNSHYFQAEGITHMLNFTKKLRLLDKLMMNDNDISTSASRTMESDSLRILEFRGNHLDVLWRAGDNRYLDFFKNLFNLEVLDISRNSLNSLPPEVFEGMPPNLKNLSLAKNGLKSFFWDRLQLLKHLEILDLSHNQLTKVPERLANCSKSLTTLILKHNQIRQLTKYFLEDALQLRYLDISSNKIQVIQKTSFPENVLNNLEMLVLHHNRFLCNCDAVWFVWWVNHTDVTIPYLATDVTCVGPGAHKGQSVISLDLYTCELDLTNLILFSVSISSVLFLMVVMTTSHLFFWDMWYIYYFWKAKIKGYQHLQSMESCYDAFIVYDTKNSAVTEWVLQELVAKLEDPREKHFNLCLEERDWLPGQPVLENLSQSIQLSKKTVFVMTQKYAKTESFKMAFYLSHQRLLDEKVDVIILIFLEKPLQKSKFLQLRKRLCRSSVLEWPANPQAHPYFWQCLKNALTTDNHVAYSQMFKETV
Experimental: as §2, §1

[5] = hIFNα in supernatant, EC50 values approximated and divided into groups, read-out: PBMC IFNa EC50
[6] = hIL6 in supernatant, read-out: PBMC IL6 EC50

Row | Structure (SMILES) | EC50 [1, 5] | EC50 [1, 6] | EC50 [2] | EC50 [3] | EC50 [4] | Splenocyte IL6 EC50 (nM) [3] | PBMC IL6 EC50 (nM) ([1]; hIL6 in supernatant)
1 | CCCCOc1nc(N)c2nc(O)n(Cc3ccc(CNC(CO)[C@@H](C)CC)cc3OC)c2n1 (stereo in doubt) [Compound 161, 6-amino-2-butoxy-9-(4-((((2R,3S)-1-hydroxy-3-methylpentan-2-yl)amino)-methyl)-2-methoxybenzyl)-9H-purin-8-ol] | < 0.1 nM | 16.7 nM | < 0.1 nM | 0.3 nM | < 0.1 nM | – | –
2 | CCCCOc1nc(N)c2nc(O)n(Cc3ccc(CNCC(C)(C)O)cc3OC)c2n1 [Compound 159, 6-amino-2-butoxy-9-(4-(((2-hydroxy-2-methylpropyl)amino)methyl)-2-methoxybenzyl)-9H-purin-8-ol] | < 0.1 nM | – | 1.6 nM | 2 nM | 2.9 nM | – | –
3 | CCCC(CO)Oc1nc(N)c2nc(O)n(Cc3ccc(CN)cc3)c2n1 (stereo not shown) [Compound 182, 6-amino-9-(4-(aminomethyl)benzyl)-2-((1-hydroxypentan-2-yl)oxy)-9H-purin-8-ol] | > 10 nM | 5220 nM | 2.1 nM | 2.4 nM | 5.9 nM | – | –
4 | CCCCOc1nc(N)c2nc(O)n(Cc3ccc(CN4CCNCC4)cc3OC)c2n1 [Compound 154, 6-amino-2-butoxy-9-(2-methoxy-4-(piperazin-1-ylmethyl)benzyl)-9H-purin-8-ol] | > 10 nM | 1970 nM | 0.2 nM | 217 nM | 2.9 nM | – | –
5 | CCCCCNc1nc(N)c2nc(O)n(Cc3ccc(CN)cc3)c2n1 [Compound 183, 6-amino-9-(4-(aminomethyl)benzyl)-2-(pentylamino)-9H-purin-8-ol] | > 10 nM | 291 nM | 145 nM | 235 nM | 60.6 nM | – | –
6 | CCOc1nc(N)c2nc(O)n(Cc3ccc(CN4CCN(CCNC(=O)CC(SC[C@@H](N)C(=O)O)C(=O)O)CC4)cc3OC)c2n1 (stereo partly drawn) [Compound 113, 2-(((S)-2-amino-2-carboxyethyl)thio)-4-((2-(4-(4-((6-amino-2-ethoxy-8-hydroxy-9H-purin-9-yl)methyl)-3-methoxybenzyl)piperazin-1-yl)ethyl)amino)-4-oxobutanoic Acid] | > 10 nM | 1360 nM | 187 nM | 1180 nM | 662 nM | – | –
7 | CCOc1nc(N)c2nc(O)n(Cc3ccc(CN4CCC(N)CC4)cc3F)c2n1 [Compound 153, 6-amino-9-(4-((4-aminopiperidin-1-yl)methyl)-2-fluorobenzyl)-2-ethoxy-9H-purin-8-ol] | > 10 nM | 39 nM | 6.1 nM | – | 263 nM | inactive | –
8 | CCCCCNc1nc(N)nc2ccn(Cc3ccc(CN4CCN(CCNC(=O)CC(SCC(N)C(=O)O)C(=O)O)CC4)cc3OC)c12 (stereo not shown) [Benchmark, reference compound] | 1 to 10 nM | 207 nM | – | 222 nM | – | – | –
9 | CCCCOc1nc(N)c2nc(O)n(Cc3ccc(CCN4CCC(N)CC4)cc3OC)c2n1 [Compound 181, 6-amino-9-(4-(2-(4-aminopiperidin-1-yl)ethyl)-2-methoxybenzyl)-2-butoxy-9H-purin-8-ol] | > 10 nM | – | 4.5 nM | 235 nM | – | – | inactive
10 | CCOc1nc(N)c2nc(O)n(Cc3ccc(CN[C@@H](Cc4ccccc4)C(=O)O)cc3OC)c2n1 [Compound 117, (4-((6-amino-2-ethoxy-8-hydroxy-9H-purin-9-yl)methyl)-3-methoxybenzyl)-L-phenylalanine] | > 10 nM | – | 13000 nM | – | – | inactive | inactive
11 | CCCCOc1nc(N)c2nc(O)n(Cc3ccc(CCN4CCC(CCN)CC4)cc3OC)c2n1 [Compound 178, 6-amino-9-(4-(2-(4-(2-aminoethyl)piperidin-1-yl)ethyl)-2-methoxybenzyl)-2-butoxy-9H-purin-8-ol] | 1 to 10 nM | 284 nM | 144 nM | 245 nM | – | – | –
